Like-named read-outs stand apart in the source and are kept apart here.
How the values were obtained:
in vitro [1] = format: in vitro ADME, rat
Excerpt: RLM Stability Pooled RLM from male Sprague-Dawley rats (Xenotech R1000) were used.

5-HT1A receptor = biological target: T1, 5-HT1A receptor (Homo sapiens, UniProt P08908); test: cell-based; conditions: agonist, Ca2+ flux; for Emax: CHO, CHO cells with Gα15, max dose, read-out: 5-HT1A % Act @ Max Dose
T1 construct: expressed in transfected cells; host or cells: CHO cells, stably transfected
T1 sequence (P08908 1-422): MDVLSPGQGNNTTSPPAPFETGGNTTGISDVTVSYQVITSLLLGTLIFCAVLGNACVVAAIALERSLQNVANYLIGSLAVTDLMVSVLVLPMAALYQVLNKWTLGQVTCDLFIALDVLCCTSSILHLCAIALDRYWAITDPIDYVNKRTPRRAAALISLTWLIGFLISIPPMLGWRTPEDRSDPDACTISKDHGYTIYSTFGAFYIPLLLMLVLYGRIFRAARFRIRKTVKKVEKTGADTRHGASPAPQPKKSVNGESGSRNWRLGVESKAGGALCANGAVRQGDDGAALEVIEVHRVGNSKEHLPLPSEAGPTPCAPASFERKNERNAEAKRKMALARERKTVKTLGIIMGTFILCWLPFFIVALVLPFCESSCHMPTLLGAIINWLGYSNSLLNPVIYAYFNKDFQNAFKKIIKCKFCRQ
In short: (§1)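 FLIPR Tetra fluorescence read-out of calcium flux after compound addition. Receptor-expressing stable lines were used (HEK293 for 2A/2B; CHO with Gα15 for 1A), dye-loaded with Fluo-4 Direct and 2.5 mM final probenecid, 50 min at 37 °C.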

5-HT2B receptor = biological target: T2, 5-HT2B receptor (Homo sapiens, UniProt P41595); test: cell-based; format: cell-based; conditions: for Emax: HEK293, agonist, HEK293, max dose, read-out: 5-HT2B % Act @ Max Dose; for selectivity for 5-HT2A over 5-HT2B: functional, compared to closest N-methyl counterparts Int8, Int11, Int17
T2 construct: expressed in transfected cells; host or cells: HEK293, stably transfected
T2 sequence (P41595 whole entry): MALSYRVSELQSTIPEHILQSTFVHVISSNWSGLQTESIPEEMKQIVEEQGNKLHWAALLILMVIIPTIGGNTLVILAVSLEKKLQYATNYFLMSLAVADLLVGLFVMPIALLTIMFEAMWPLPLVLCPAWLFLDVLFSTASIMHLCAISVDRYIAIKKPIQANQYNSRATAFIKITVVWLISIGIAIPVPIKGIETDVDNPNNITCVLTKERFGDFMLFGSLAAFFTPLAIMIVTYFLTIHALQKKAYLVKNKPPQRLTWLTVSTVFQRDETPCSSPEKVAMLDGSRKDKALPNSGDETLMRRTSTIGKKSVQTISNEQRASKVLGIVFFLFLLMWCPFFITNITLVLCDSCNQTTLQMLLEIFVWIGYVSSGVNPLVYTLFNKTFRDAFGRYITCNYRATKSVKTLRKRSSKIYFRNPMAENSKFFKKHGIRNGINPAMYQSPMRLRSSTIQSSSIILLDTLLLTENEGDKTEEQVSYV
In short: as §1

5-HT2A receptor [2] = biological target: T3, 5-HT2A receptor (Homo sapiens, UniProt P28223); test: cell-based; format: cell-based; conditions: beta-arrestin recruitment; for Emax / EC50: agonist; for Emax: max dose, read-out: 5-HT2A Arrestin % Act @ Max Dose; for EC50: PathHunter, read-out: 5-HT2A Arrestin EC50
T3 sequence (P28223 whole entry, the tested form may be a part): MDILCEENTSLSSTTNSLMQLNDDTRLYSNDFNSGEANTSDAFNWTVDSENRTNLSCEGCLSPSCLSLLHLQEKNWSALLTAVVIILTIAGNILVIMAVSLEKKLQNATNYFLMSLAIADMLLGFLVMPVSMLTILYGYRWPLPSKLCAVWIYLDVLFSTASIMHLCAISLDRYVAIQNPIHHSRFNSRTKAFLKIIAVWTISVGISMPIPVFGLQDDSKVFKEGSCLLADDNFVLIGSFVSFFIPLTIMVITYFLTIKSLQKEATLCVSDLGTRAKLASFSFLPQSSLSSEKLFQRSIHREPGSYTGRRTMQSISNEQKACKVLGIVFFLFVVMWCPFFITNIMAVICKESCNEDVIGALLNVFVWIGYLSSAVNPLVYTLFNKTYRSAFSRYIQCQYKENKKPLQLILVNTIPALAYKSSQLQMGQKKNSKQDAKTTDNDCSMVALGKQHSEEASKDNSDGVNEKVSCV
In short: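 PathHunter β-arrestin recruitment (enzyme fragment complementation): 5-HT2A fused to ProLink donor in cells co-expressing β-arrestin–β-galactosidase acceptor, seeded and held at 37° C before testing. Chemiluminescent read-out; agonist % activity = (sample RLU − vehicle)/(max control ligand − vehicle) × 100.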

in vitro [3] = format: in vitro ADME, mouse
Excerpt: MLM Stability Pooled MLM from male CD-1 mice (BIOIVT M00501) were used.

5-HT2A receptor [4] = biological target: T3, 5-HT2A receptor; test: cell-based; format: cell-based; set-up: expressed in transfected cells; host or cells: HEK293, stably transfected; conditions: for Emax: HEK293, agonist, HEK293, max dose, read-out: 5-HT2A % Act @ Max Dose
In short: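 FLIPR Ca2+ flux agonist assay using stably transfected HEK293 (5-HT2A, 5-HT2B) or CHO cells co-expressing Gα15 (5-HT1A). Cells loaded with Fluo-4 Direct plus 2.5 mM probenecid (final) for 50 min at 37 °C, then compound added and fluorescence read.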

in vitro [5] = format: in vitro ADME, human
5-HT1B receptor = biological target: T4, 5-HT1B receptor (Homo sapiens, UniProt P28222); test: cAMP accumulation functional assay at 5-HT1B; format: cell-based; conditions: for Emax: max dose, read-out: 5-HT1B % Act @ Max Dose; for selectivity for 5-HT2A over 5-HT1B: functional, compared to the N-methyl prototype LSD
T4 construct: expressed in transfected cells
T4 sequence (P28222 whole entry): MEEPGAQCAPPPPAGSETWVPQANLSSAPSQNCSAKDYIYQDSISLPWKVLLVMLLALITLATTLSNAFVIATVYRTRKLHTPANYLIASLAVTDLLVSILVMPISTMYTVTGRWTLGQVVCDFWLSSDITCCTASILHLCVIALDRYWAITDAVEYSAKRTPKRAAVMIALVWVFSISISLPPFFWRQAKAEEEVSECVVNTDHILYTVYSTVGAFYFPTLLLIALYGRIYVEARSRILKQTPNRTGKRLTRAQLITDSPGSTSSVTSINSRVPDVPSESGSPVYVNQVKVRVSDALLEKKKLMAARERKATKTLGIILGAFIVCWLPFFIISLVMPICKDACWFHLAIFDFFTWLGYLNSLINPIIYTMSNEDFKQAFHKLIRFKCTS
In short: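 Agonist activity measured as cAMP accumulation in cells stably transfected with human 5-HT1B. Cells incubated 60 min at RT, then detection reagent added for a further 60 min at RT before plate reading.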

[6] = RLM (male Sprague-Dawley) 0.50 mg/mL, NADPH 1 mM, 1 μM compound, pH 7.4, 37° C., 60 min
[7] = MLM (male CD-1) 0.50 mg/mL, NADPH 1 mM, 1 μM compound, pH 7.4, 37° C., 60 min
[8] = HLM 0.50 mg/mL, NADPH 1 mM, 1 μM compound, pH 7.4, 37° C., 60 min

| SMILES | stability in RLM (in vitro [1]) | half-life (t1/2) (in vitro [1]; [6]) [min] | Emax (5-HT1A receptor) [%] | Emax (5-HT2B receptor; Ca2+ flux) [%] | Emax (5-HT2A receptor [2]) [%] | 5-HT2A arrestin agonist class (5-HT2A receptor [2]) | stability in MLM (in vitro [3]) | half-life (t1/2) (in vitro [3]; [7]) [min] | Emax (5-HT2A receptor [4]; Ca2+ flux) [%] | stability in HLM (in vitro [5]) | half-life (t1/2) (in vitro [5]; [8]) [min] | Emax (5-HT1B receptor; agonist, cAMP accumulation) [%] | selectivity for 5-HT2A over 5-HT1B (5-HT1B receptor) | Intrinsic clearance (Clint) (in vitro [1]; [6]) [µL/min/mg] | Intrinsic clearance (Clint) (in vitro [3]; [7]) [µL/min/mg] | Intrinsic clearance (Clint) (in vitro [5]; [8]) [µL/min/mg] | EC50 (5-HT2A receptor [2]) [nM] | further results |
| --- | --- | --- | --- | --- | --- | --- | --- | --- | --- | --- | --- | --- | --- | --- | --- | --- | --- | --- |
| CCN(CC)C(=O)[C@@H]1C=C2c3cccc4[nH]cc(c34)C[C@H]2N(CCCF)C1 [Compound 2, (6aR,9R)—N,N-diethyl-7-(3-fluoropropyl)-4,6,6a,7,8,9-hexahydroindolo[4,3-fg]quinoline-9-carboxamide] | much lower stability (higher clearance) | 11.972 | 92.4 | 101 | 115 | full agonists | much lower stability (higher clearance) | 2.666 | 97.8 | much lower stability (higher clearance) | 19.061 | 90 | greater selectivity for 5-HT2A over 5-HT1B | – | – | – | – | – |
| CCCN1C[C@H](C(=O)N[C@H](C)CC)C=C2c3cccc4[nH]cc(c34)C[C@H]21 [Compound 3, (6aR,9R)—N—((R)-sec-butyl)-7-propyl-4,6,6a,7,8,9-hexahydroindolo[4,3-fg]quinoline-9-carboxamide] | much lower stability (higher clearance) | 4.4 | 108 | 94.1 | 110 | full agonists | much lower stability (higher clearance) | 1.6 | 103 | much lower stability (higher clearance) | 4.2 | 98.7 | greater selectivity for 5-HT2A over 5-HT1B | – | – | – | – | selectivity for 5-HT2A over 5-HT2B (5-HT2B receptor): more selective for 5-HT2A over 5-HT2B; selectivity for 5-HT2A over adrenergic and dopamine receptors (5-HT2A receptor [4]; versus Alpha1A, Alpha2A, D1, D2): exceptional selectivity |
| CCCN1C[C@H](C(=O)N2[C@@H](C)C[C@@H]2C)C=C2c3cccc4[nH]cc(c34)C[C@H]21 [Compound 4, ((2S,4S)-2,4-dimethylazetidin-1-yl)((6aR,9R)-7-propyl-4,6,6a,7,8,9-hexahydroindolo[4,3-fg]quinolin-9-yl)methanone] | much lower stability (higher clearance) | 12.8 | 123 | 87.5 | 117 | full agonists | much lower stability (higher clearance) | 0.8 | 97.6 | much lower stability (higher clearance) | 10.6 | 96 | greater selectivity for 5-HT2A over 5-HT1B | – | – | – | – | selectivity for 5-HT2A over 5-HT2B (5-HT2B receptor): more selective for 5-HT2A over 5-HT2B |
| CCCN1C[C@H](C(=O)NC(CC)CC)C=C2c3cccc4[nH]cc(c34)C[C@H]21 [Compound 6, (6aR,9R)—N-(pentan-3-yl)-7-propyl-4,6,6a,7,8,9-hexahydroindolo[4,3-fg]quinoline-9-carboxamide] | much lower stability (higher clearance) | 1.655 | 102 | 92.9 | 103 | full agonists | much lower stability (higher clearance) | 0.6 | 94.6 | much lower stability (higher clearance) | 1.607 | 94.6 | greater selectivity for 5-HT2A over 5-HT1B | – | – | – | – | – |
| CCN(CC)C(=O)[C@@H]1C=C2c3cccc4[nH]cc(c34)C[C@H]2N(Cc2ccccc2OC)C1 [Compound 10, (6aR,9R)—N,N-diethyl-7-(2-methoxybenzyl)-4,6,6a,7,8,9-hexahydroindolo[4,3-fg]quinoline-9-carboxamide] | much lower stability (higher clearance) | 3.4 | 53 | 2 | 47.1 | – | much lower stability (higher clearance) | 1 | 49.4 | much lower stability (higher clearance) | 7.3 | 87.3 | – | 407.4 | 1396.8 | 190.3 | – | – |
| CCN(CC)C(=O)[C@@H]1C=C2c3cccc4[nH]cc(c34)C[C@H]2N(Cc2cccc(OC)c2)C1 [Compound 18, (6aR,9R)—N,N-diethyl-7-(3-methoxybenzyl)-4,6,6a,7,8,9-hexahydroindolo[4,3-fg]quinoline-9-carboxamide] | – | 5.3 | 28.9 | 4.69 | 89.6 | – | – | 2.6 | 61.1 | – | 13.6 | 83.3 | – | 262.8 | 523.7 | 101.7 | 4.27 | – |
| CCN(CC)C(=O)[C@@H]1C=C2c3cccc4[nH]cc(c34)C[C@H]2N(Cc2ccc(OC)cc2)C1 [Compound 19, (6aR,9R)—N,N-diethyl-7-(4-methoxybenzyl)-4,6,6a,7,8,9-hexahydroindolo[4,3-fg]quinoline-9-carboxamide] | – | 10.0 | -0.65 | 2.44 | 42.3 | – | – | 7.2 | 70.5 | – | 16.8 | 71.1 | – | 139.0 | 192.7 | 82.7 | 13.5 | – |
| CCN(CC)C(=O)[C@@H]1C=C2c3cccc4[nH]cc(c34)C[C@H]2N(Cc2cccc(O)c2)C1 [Compound 62, (6aR,9R)—N,N-diethyl-7-(3-hydroxybenzyl)-4,6,6a,7,8,9-hexahydroindolo[4,3-fg]quinoline-9-carboxamide] | – | – | 22.7 | 9.88 | 58.4 | – | – | – | 81.5 | – | – | 46.8 | – | – | – | – | 10.9 | microsomal CLint (in vitro [1]; rat, microsomes, RLM (male Sprague-Dawley) 0.50 mg/mL, NADPH 1 mM, 1 μM compound, pH 7.4, 37° C., 60 min, read-out: Intrinsic clearance (Clint)): 214 µL/min/mg; half-life (in vitro [1]; rat, microsomes, RLM (male Sprague-Dawley) 0.50 mg/mL, NADPH 1 mM, 1 μM compound, pH 7.4, 37° C., 60 min, read-out: half-life (t1/2)): 6.5 min; EC50 (5-HT1A receptor; CHO cells with Gα15): 12600 nM; EC50 (5-HT2B receptor; agonist, Ca2+ flux, HEK293): > 100000 nM; microsomal CLint (in vitro [3]; mouse, microsomes, MLM (male CD-1) 0.50 mg/mL, NADPH 1 mM, 1 μM compound, pH 7.4, 37° C., 60 min, read-out: Intrinsic clearance (Clint)): 244 µL/min/mg; half-life (in vitro [3]; mouse, microsomes, MLM (male CD-1) 0.50 mg/mL, NADPH 1 mM, 1 μM compound, pH 7.4, 37° C., 60 min, read-out: half-life (t1/2)): 5.7 min; EC50 (5-HT2A receptor [4]; agonist, Ca2+ flux, HEK293): 907 nM; microsomal CLint (in vitro [5]; human, microsomes, HLM 0.50 mg/mL, NADPH 1 mM, 1 μM compound, pH 7.4, 37° C., 60 min, read-out: Intrinsic clearance (Clint)): 134 µL/min/mg; half-life (in vitro [5]; human, microsomes, HLM 0.50 mg/mL, NADPH 1 mM, 1 μM compound, pH 7.4, 37° C., 60 min, read-out: half-life (t1/2)): 10.3 min; EC50 (5-HT1B receptor; agonist, cAMP accumulation): > 10000 nM |
